According to ChEMBL document CHEMBL2021794, “Synthesis, σ₁, σ₂-receptors binding affinity and antiproliferative action of new C1-substituted adamantanes” (Bioorg Med Chem, 2012):

What was measured:
MIA PaCa-2 [1] = experiment: Growth inhibition of human MIAPaCa2 cells after 48 hrs by SRB assay; assay type: functional; conditions: MIA PaCa-2, 48 h; for CC50: read-out: LC50 (the source's name)
BXPC-3 = experiment: Growth inhibition of human BxPC3 cells after 48 hrs by SRB assay; assay type: functional; conditions: BXPC-3, 48 h
MIA PaCa-2 [2] = experiment: Antitumor activity against human MIAPaCa2 cells xenografted in SCID mouse assessed as reduction in tumor volume at 70 mg/kg, ip twice a week; conditions: MIA PaCa-2, ip, read-out: INH
MIA PaCa-2 [3] = experiment: Antitumor activity against human MIAPaCa2 cells xenografted in SCID mouse assessed as tumor weight at 70 mg/kg, ip twice a week (reference value: 1225 +/- 308 mg); assay type: functional; conditions: route intraperitoneal
HCT-116 = experiment: Growth inhibition of human HCT116 cells after 48 hrs by SRB assay; assay type: functional; conditions: HCT-116, 48 h; for CC50: read-out: LC50 (the source's name)
HCT-15 = experiment: Growth inhibition of human HCT15 cells after 48 hrs by SRB assay; assay type: functional; conditions: HCT-15, 48 h
MCF7 = experiment: Growth inhibition of human MCF7 cells after 48 hrs by SRB assay; assay type: functional; conditions: MCF7, 48 h; for CC50: read-out: LC50 (the source's name)
IGROV-1 = experiment: Growth inhibition of human IGROV1 cells after 48 hrs by SRB assay; assay type: functional; conditions: IGROV-1, 48 h
OVCAR-5 = experiment: Growth inhibition of human OVCAR5 cells after 48 hrs by SRB assay; assay type: functional; conditions: OVCAR-5, 48 h; for CC50: read-out: LC50 (the source's name)
SF-268 = experiment: Growth inhibition of human SF268 cells after 48 hrs by SRB assay; assay type: functional; conditions: SF-268, 48 h; for CC50: read-out: LC50 (the source's name)
NCI-H460 = experiment: Growth inhibition of human NCI-H460 cells after 48 hrs by SRB assay; assay type: functional; conditions: NCI-H460, 48 h
DMS-114 = experiment: Growth inhibition of human DMS114 cells after 48 hrs by SRB assay; assay type: functional; conditions: DMS-114, 48 h
HL-60(TB) = experiment: Growth inhibition of human HL-60(TB) cells after 48 hrs by SRB assay; assay type: functional; conditions: HL-60, 48 h
SK-HEP1 = experiment: Growth inhibition of human SKHEP1 cells after 48 hrs by SRB assay; assay type: functional; conditions: SK-HEP1, 48 h
LOX IMVI = experiment: Growth inhibition of human LOXIMVI cells after 48 hrs by SRB assay; assay type: functional
[4] = (§1) Growth inhibition of HUVEC cells after 48 hrs by SRB assay; assay type: cell-based; conditions: human, HUVEC cells
HUVEC = experiment: as §1; assay type: cell-based; conditions: human, huvec, 48 h
[5] = Growth inhibition of human MSC cells after 48 hrs by SRB assay; assay type: cell-based
[6] = (§2) Growth inhibition of NHDF cells after 48 hrs by SRB assay; assay type: cell-based; conditions: human, NHDF cells
NHDF = experiment: as §2; assay type: cell-based; conditions: human, nhdf, 48 h
[7] = target: Sigma non-opioid intracellular receptor 1 (Homo sapiens, UniProt Q99720); experiment: Displacement of [3H](+)pentazocine from sigma-1 receptor expressed in human Jurkat cell membranes after 2 hrs by liquid scintillation spectroscopy
[8] = Displacement of [3H](+)1-DTG from sigma-2 receptor expressed in rat cerebral cortex membranes after 2 hrs by liquid scintillation spectroscopy; assay type: cell membranes, Membrane
[9] = Displacement of [3H]BTX-B from Na+ channel site 2 after 60 mins by liquid scintillation spectroscopy
[10] = Selectivity ratio of IC50 for human sigma-1 receptor to IC50 for rat sigma-2 receptor
[11] = read-out: LC50 (the source's name)

Sigma non-opioid intracellular receptor 1, sequence (Q99720 whole entry): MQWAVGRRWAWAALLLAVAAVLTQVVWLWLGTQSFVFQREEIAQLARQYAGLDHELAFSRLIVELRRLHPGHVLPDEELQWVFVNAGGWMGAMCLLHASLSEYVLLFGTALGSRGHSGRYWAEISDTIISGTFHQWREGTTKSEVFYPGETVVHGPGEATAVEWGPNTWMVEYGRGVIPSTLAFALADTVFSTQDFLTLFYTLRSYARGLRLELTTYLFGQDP

Nc1ccn([C@@H]2O[C@H](CO)[C@@H](O)C2(F)F)c(=O)n1 [GEMCITABINE]
GI50 (MIA PaCa-2 [1]): 35.8 µM | TGI (MIA PaCa-2 [1]): 100 µM | CC50 (MIA PaCa-2 [1]): 100 µM | GI50 (BXPC-3): 3.64 µM | TGI (BXPC-3): 9.05 µM | inhibition in vivo at 70 mg/kg (MIA PaCa-2 [2]): 56.2% | Activity (MIA PaCa-2 [3]): 537 mg

c1ccc(C(c2ccc(N3CCNCC3)cc2)C23CC4CC(CC(C4)C2)C3)cc1 (centres undefined)
GI50 (HCT-116): 3.67 µM | TGI (HCT-116): 6.54 µM | CC50 (HCT-116): 9.41 µM | GI50 (HCT-15): 3.4 µM | LC50 (HCT-15): 8.9 µM | TGI (HCT-15): 6.15 µM | GI50 (MCF7): 2.49 µM | TGI (MCF7): 5.59 µM | CC50 (MCF7): 8.68 µM | GI50 (IGROV-1): 3.32 µM | TGI (IGROV-1): 6.1 µM | CC50 (IGROV-1; [11]): 8.89 µM | GI50 (OVCAR-5): 4.27 µM | TGI (OVCAR-5): 7.33 µM | CC50 (OVCAR-5): 10.4 µM | GI50 (SF-268): 3.45 µM | TGI (SF-268): 6.11 µM | CC50 (SF-268): 8.76 µM | GI50 (NCI-H460): 3.74 µM | LC50 (concentration killing 50% of cells) (NCI-H460): 9.7 µM | TGI (NCI-H460): 6.72 µM | GI50 (DMS-114): 3.97 µM | TGI (DMS-114): 6.51 µM | CC50 (DMS-114; [11]): 9.05 µM | GI50 (HL-60(TB)): 5.97 µM | LC50 (HL-60(TB)): 100 µM | TGI (HL-60(TB)): 9.92 µM | GI50 (BXPC-3): 3.61 µM | LC50 (BXPC-3): 9.05 µM | TGI (BXPC-3): 6.33 µM | GI50 (SK-HEP1): 3.91 µM | TGI (SK-HEP1): 6.48 µM | CC50 (SK-HEP1; [11]): 9.04 µM | GI50 (LOX IMVI): 2.79 µM | LC50 (concentration killing 50% of cells) (LOX IMVI): 8.11 µM | TGI (LOX IMVI): 5.45 µM | GI50 at 48 h [4]: 4.8 µM | LC50 (HUVEC): 100 µM | TGI (HUVEC): 7.62 µM | GI50 at 48 h ([5]; MSC cells): 4.87 µM | LC50 ([5]; msc, 48 h): 9.33 µM | TGI ([5]; msc, 48 h): 7.1 µM | GI50 at 48 h [6]: 2.97 µM | LC50 (NHDF): 9.49 µM | TGI (NHDF): 6.23 µM | IC50 [7]: 0.0124 µM | IC50 [8]: > 1 µM | IC50 [9]: 1.2 µM

c1ccc(C(c2ccc(N3CCOCC3)cc2)C23CC4CC(CC(C4)C2)C3)cc1 (centres undefined)
TGI (HCT-116): 100 µM | CC50 (HCT-116): 100 µM | TGI (MCF7): 100 µM | CC50 (MCF7): 100 µM | TGI (OVCAR-5): 100 µM | CC50 (OVCAR-5): 100 µM | CC50 (SF-268): 100 µM | LC50 (concentration killing 50% of cells) (NCI-H460): 100 µM | TGI (NCI-H460): 100 µM | LC50 (BXPC-3): 100 µM | TGI (BXPC-3): 100 µM | IC50 [7]: > 0.1 µM | IC50 [8]: > 1 µM | IC50 [9]: > 10 µM

c1ccc(C(c2ccc(N3CCN(C4CCCCC4)CC3)cc2)C23CC4CC(CC(C4)C2)C3)cc1 (centres undefined)
GI50 (HCT-116): 22.2 µM | TGI (HCT-116): 100 µM | CC50 (HCT-116): 100 µM | GI50 (MCF7): 8.7 µM | TGI (MCF7): 55 µM | CC50 (MCF7): 100 µM | GI50 (OVCAR-5): 55.4 µM | TGI (OVCAR-5): 98.2 µM | CC50 (OVCAR-5): 100 µM | GI50 (SF-268): 53.1 µM | TGI (SF-268): 99.8 µM | CC50 (SF-268): 100 µM | GI50 (NCI-H460): 47.3 µM | LC50 (concentration killing 50% of cells) (NCI-H460): 100 µM | TGI (NCI-H460): 100 µM | GI50 (MIA PaCa-2 [1]): 20.2 µM | TGI (MIA PaCa-2 [1]): 66.1 µM | CC50 (MIA PaCa-2 [1]): 100 µM | GI50 (BXPC-3): 8.58 µM | LC50 (BXPC-3): 100 µM | TGI (BXPC-3): 76.8 µM | IC50 [7]: 0.00027 µM | IC50 [8]: 0.097 µM | IC50 [9]: 0.7 µM | Ratio IC50 [10]: 360
